In data set [1] the test system is mouse leukemia adriamycin sensitive strain P388/S. Briefly: Cancer cell sensitivity test (MTT). The format is cell-based. The note with it: P388/S cells, test compound 25 μM, 44 hours, MTT-formazan at 540 nm; for inhibition at 25 µM: Mus musculus, read-out: INHIBITORY RATE (%). How it is done:
Cells of mouse leukemia adriamycin sensitive strain P388/S were cultured in an RPMI1640 culture medium (5% fetal bovine serum, […] 2-mercaptoethanol, 30 μM kanamycin) under conditions of 37° C. and 5% CO2, and used for a compound sensitivity test.
The cell suspension (1.35×10^4 cells/ml) was added to a 96 well plate, 100 μl per well.
After culturing under the conditions of 37° C. and 5% CO2 for 16 hours, a solution of the test compound dissolved in DMSO to a concentration of 25 μM was added, followed by continuation of culture for a further 44 hours, while only DMSO was added to a control to continue the culture.
After culturing, […] (PBS, pH 7.4), was added in an amount of 25 μl/well, followed by incubation for four hours to produce MTT-formazan.
After removing supernatant by aspiration, 200 μl of DMSO was added and the absorbance of MTT-formazan at 540 nm was measured.

The next data set addresses Aldose reductase II (Homo sapiens, UniProt P15121). Nature of the data set: Aldose reductase inhibitory activity (NADPH decrease at 340 nm, DL-glyceraldehyde substrate). The note with it: pH 6.2, 100 mM DL-glyceraldehyde, 1.5 mM NADPH. In kind it is biochemical. How it is done: A reaction solution containing a 200 mM of a phosphate buffer solution (pH 6.2), 1.5 mM of reduced nicotinamide adenine dinucleotide phosphate (NADPH), 1 mg/ml of bovine serum albumin, a test compound, and 100 mM of DL-glyceraldehyde as a substrate was prepared. Aldose reductase II (5.1×10^−1 unit/ml) was added to the solution to initiate the reaction, and the amount of NADPH reduced by the reaction was measured at an absorption wavelength of 340 nm using a spectrophotometer.

The subject of a further data set is mice. Briefly: Acute toxicity test. In kind it is in vivo. To be noted: 500 mg/kg body weight, three mice. Here is the method:
Compound 28 was orally administered to three mice at a dose of 500 mg/kg body weight, the maximum amount considered to be prescribed for the mouse in one dose.

In the case of `CCOC(=O)Cn1c2c(c3cc(F)ccc31)CCN(Cc1ccccc1)C2=O` [Compound 22a, (2-Benzyl-6-fluoro-1-oxo-1,2,3,4-tetrahydro-β-carbolin-9-yl)acetic acid ethyl ester], the inhibition at 25 µM in data set [1] came to 34.5%.
In the case of `CC(C)(C)OC(=O)Cn1c2c(c3cc(F)ccc31)CCN(Cc1ccccc1)C2=S` [Compound 23, (2-benzyl-6-fluoro-1-thioxo-1,2,3,4-tetrahydro-β-carbolin-9-yl)acetic acid tert-butyl ester], the “INHIBITORY RATE (%)” value in data set [1] came to 92.9%. The compound further showed an IC50 at Aldose reductase II of 5.6 µM.
On to `O=C(O)Cn1c2c(c3ccccc31)CCN(Cc1ccccc1)C2=S` [Compound 26, (2-Benzyl-1-thioxo-1,2,3,4-tetrahydro-β-carbolin-9-yl)acetic acid], for which, in data set [1], the inhibition at 25 µM stood at 88.1%. The same compound showed an IC50 against Aldose reductase II of 4.2 µM.
With `O=C(O)Cn1c2c(c3c(F)cc(F)cc31)CCN(Cc1ccccc1)C2=S` [Compound 28, (2-Benzyl-5,7-difluoro-1-thioxo-1,2,3,4-tetrahydro-β-carbolin-9-yl)acetic acid], in the data set with mice, the “Survival after single oral dose” value is recorded as “all of the three mice survived”. Besides, the “Abnormalities in internal organs, action, etc.” value with mice (oral) is “no abnormalities being observed”. Also, the half-inhibitory concentration (IC50) against Aldose reductase II is 2.5 µM.
As to `O=C(O)Cn1c2c(c3cc(Cl)ccc31)CCOC2=O` [Compound 30, (6-Chloro-1-oxo-3,4-dihydro-1H-pyrano[3,4-b]indol-9-yl)acetic acid], the inhibition at 25 µM in data set [1] worked out at 31.1%. On Aldose reductase II, this compound showed an IC50 of 12.4 µM.
`O=C(O)Cn1c2c(c3ccccc31)CCN(C(=O)c1ccc(F)cc1F)C2=O` [Compound 49, [2-(2,4-Difluorobenzoyl)-1-oxo-1,2,3,4-tetrahydro-β-carbolin-9-yl]acetic acid] showed an IC50 against Aldose reductase II of 45.3 µM.
For `O=C(O)Cn1c2c(c3ccccc31)CCN(C(=O)c1cc(F)cc(F)c1)C2=O` [Compound 50, [2-(3.5-Difluorobenzoyl)-1-oxo-1,2,3,4-tetrahydro-β-carbolin-9-yl]acetic acid], the IC50 at Aldose reductase II was determined as 34.5 µM.
Still for that read-out and setting: then `O=C(O)Cn1c2c(c3ccccc31)CCN(C(=O)c1ccc(Br)cc1F)C2=O` [Compound 51, [2-(2-Fluoro-4-bromobenzoyl)-1-oxo-1,2,3,4-tetrahydro-β-carbolin-9-yl]acetic acid], with 68.3 µM.
Regarding `O=C(O)Cn1c2c(c3ccccc31)CCN(C(=O)c1cc(F)c(F)c(F)c1)C2=O` [Compound 52, [2-(3,4,5-Trifluorobenzoyl)-1-oxo-1,2,3,4-tetrahydro-β-carbolin-9-yl]acetic acid], the inhibition at 25 µM in data set [1] turned out to be 34.7%. Besides, the 50% inhibitory concentration (IC50) at Aldose reductase II worked out at 55.3 µM.
For the compound `COc1cc(C(=O)N2CCc3c(n(CC(=O)O)c4ccccc34)C2=O)cc(OC)c1OC` [Compound 53, [2-(3,4,5-Trimetoxybenzoyl)-1-oxo-1,2,3,4-tetrahydro-β-carbolin-9-yl]acetic acid], at Aldose reductase II, the IC50 stood at 46.8 µM.
Regarding `O=C(O)Cn1c2c(c3ccccc31)CCN(C(=O)c1cc(O)c(O)c(O)c1)C2=O` [Compound 54, [2-(3,4,5-Trihydroxybenzoyl)-1-oxo-1,2,3,4-tetrahydro-β-carbolin-9-yl]acetic acid], on Aldose reductase II, the IC50 worked out at 48 µM. The IC50 values of the last two compounds are within 1.5-fold of each other.
On to `O=C(O)Cn1c2c(c3ccccc31)CCN(C(=O)c1ccccc1)C2=O` [Compound 55, (2-Benzoyl-1-oxo-1,2,3,4-tetrahydro-β-carbolin-9-yl)acetic acid], for which inhibition against Aldose reductase II was half-maximal at 53.1 µM (IC50). The IC50 values of the last two compounds are within 1.5-fold of each other.
At Aldose reductase II, `O=C(O)Cn1c2c(c3cc(Cl)ccc31)CCSC2=O` [Compound 56, (6-chloro-1-oxo-3,4-dihydro-1H-2-thia-9-azafluoren-9-yl)acetic acid] had an IC50 of 1.1 µM.
The same measure, in the same setting: then `O=C(O)Cn1c2c(c3ccccc31)CCSC2=O` [Compound 57, (1-Oxo-3,4-dihydro-1H-2-thia-9-azafluoren-9-yl)acetic acid], with 2.8 µM; and `Cc1ccc2c(c1)c1c(n2CC(=O)O)C(=O)SCC1` [Compound 58, (6-Methyl-1-oxo-3,4-dihydro-1H-2-thia-9-azafluoren-9-yl)acetic acid], with 1.6 µM; and `CC(C)(C)c1ccc2c(c1)c1c(n2CC(=O)O)C(=O)SCC1` [Compound 59, (6-tert-Butyl-1-oxo-3,4-dihydro-1H-2-thia-9-azafluoren-9-yl)acetic acid], with 1.4 µM.
On Aldose reductase II, `O=C(O)Cn1c2c(c3cc(Cc4ccccc4)ccc31)CCSC2=O` [Compound 60, (6-Benzyl-1-oxo-3,4-dihydro-1H-2-thia-9-azafluoren-9-yl)acetic acid] gave a half-maximal inhibitory concentration (IC50) of 3.6 µM.
Same read-out and setting: in the case of `COc1ccc2c(c1)c1c(n2CC(=O)O)C(=O)SCC1` [Compound 61, (6-Methoxy-1-oxo-3,4-dihydro-1H-2-thia-9-azafluoren-9-yl)acetic acid] it was 2.6 µM.
Still for that read-out and setting: then `O=C(O)Cn1c2c(c3cc(C4CCCCC4)ccc31)CCSC2=O` [Compound 62, (6-Cyclohexyl-1-oxo-3,4-dihydro-1H-2-thia-9-azafluoren-9-yl)acetic acid], with 5.6 µM.
The compound `Cc1cc(C)c2c3c(n(CC(=O)O)c2c1)C(=O)SCC3` [Compound 63, (5,7-Dimethyl-1-oxo-3,4-dihydro-1H-2-thia-9-azafluoren-9-yl)acetic acid] gave an IC50 on Aldose reductase II of 5.9 µM.
For `O=C(O)Cn1c2c(c3c(Cl)cccc31)CCSC2=O` [Compound 64, (5-Chloro-1-oxo-3,4-dihydro-1H-2-thia-9-azafluoren-9-yl)acetic acid], on Aldose reductase II, the IC50 is 3.6 µM.
`O=C(O)Cn1c2c(c3cc4c(cc31)CCCC4)CCSC2=O` [Compound 65, (1-Oxo-3,4,6,7,8,9-hexahydro-1H-2-thia-11-azabenzo[b]fluoren-11-yl)acetic acid] registered an IC50 on Aldose reductase II of 3.4 µM.
As to `O=C(O)Cn1c2c(c3c4c(ccc31)CCCC4)CCSC2=O` [Compound 66, (8-Oxo-1,3,4,8,10,11-hexahydro-2H-9-thia-7-azabenzo[c]fluoren-7-yl)acetic acid], at Aldose reductase II, the midpoint of inhibition, the IC50, lay at 1 µM.

By IC50 is commonly meant the concentration that gives 50% inhibition.

Values taken from US8198447B2, “Fused tricyclic compound having aldose reductase inhibitory activity” (National University Corporation University of Toyama, priority 2007, dated 2012).
